We go through ten molecules from ChEMBL document CHEMBL5291721, “A preclinical secondary pharmacology resource illuminates target-adverse drug reaction associations of marketed drugs” (Nat Commun, 2023).

Test [1] has as its target T1, Progesterone receptor (Homo sapiens, UniProt P06401).
T1 sequence (P06401 whole entry): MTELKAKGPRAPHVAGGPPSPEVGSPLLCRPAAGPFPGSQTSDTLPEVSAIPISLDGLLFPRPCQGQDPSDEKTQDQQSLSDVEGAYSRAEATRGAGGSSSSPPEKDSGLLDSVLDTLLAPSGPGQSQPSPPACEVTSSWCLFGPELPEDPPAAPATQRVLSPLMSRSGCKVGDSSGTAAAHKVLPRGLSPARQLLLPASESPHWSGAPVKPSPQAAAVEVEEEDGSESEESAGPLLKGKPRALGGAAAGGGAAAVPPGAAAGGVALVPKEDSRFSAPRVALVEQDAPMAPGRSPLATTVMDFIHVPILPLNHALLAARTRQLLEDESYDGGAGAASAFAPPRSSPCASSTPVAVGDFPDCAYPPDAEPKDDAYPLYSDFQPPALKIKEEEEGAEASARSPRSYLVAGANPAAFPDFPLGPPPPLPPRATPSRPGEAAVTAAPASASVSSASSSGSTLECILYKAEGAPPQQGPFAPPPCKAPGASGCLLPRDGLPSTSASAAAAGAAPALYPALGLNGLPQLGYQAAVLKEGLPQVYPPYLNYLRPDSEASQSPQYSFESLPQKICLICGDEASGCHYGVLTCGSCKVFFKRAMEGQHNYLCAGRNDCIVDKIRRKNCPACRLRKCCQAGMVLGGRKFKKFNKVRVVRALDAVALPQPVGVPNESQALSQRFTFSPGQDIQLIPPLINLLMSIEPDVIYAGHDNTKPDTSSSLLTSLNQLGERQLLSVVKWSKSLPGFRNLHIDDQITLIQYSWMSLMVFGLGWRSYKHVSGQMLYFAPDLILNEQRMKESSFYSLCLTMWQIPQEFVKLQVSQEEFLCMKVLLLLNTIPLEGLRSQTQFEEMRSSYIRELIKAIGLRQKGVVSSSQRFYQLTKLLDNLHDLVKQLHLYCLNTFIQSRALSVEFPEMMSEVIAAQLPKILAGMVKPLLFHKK
Format: functional.

In test [2] the target is T2, Adenosine receptor A3 (Homo sapiens, UniProt P0DMS8).
T2 sequence (P0DMS8 whole entry): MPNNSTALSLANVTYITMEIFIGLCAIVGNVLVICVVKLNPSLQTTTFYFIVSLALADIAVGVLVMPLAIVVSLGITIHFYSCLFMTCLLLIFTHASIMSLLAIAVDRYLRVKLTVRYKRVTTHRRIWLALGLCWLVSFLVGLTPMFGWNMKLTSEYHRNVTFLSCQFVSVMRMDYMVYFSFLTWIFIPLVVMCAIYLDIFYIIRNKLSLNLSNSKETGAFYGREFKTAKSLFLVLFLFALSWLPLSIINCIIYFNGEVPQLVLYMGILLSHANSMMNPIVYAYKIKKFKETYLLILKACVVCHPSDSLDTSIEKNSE

Test [3] deals with T3, 5-hydroxytryptamine receptor 3A (Homo sapiens, UniProt P46098).
T3 sequence (P46098 whole entry): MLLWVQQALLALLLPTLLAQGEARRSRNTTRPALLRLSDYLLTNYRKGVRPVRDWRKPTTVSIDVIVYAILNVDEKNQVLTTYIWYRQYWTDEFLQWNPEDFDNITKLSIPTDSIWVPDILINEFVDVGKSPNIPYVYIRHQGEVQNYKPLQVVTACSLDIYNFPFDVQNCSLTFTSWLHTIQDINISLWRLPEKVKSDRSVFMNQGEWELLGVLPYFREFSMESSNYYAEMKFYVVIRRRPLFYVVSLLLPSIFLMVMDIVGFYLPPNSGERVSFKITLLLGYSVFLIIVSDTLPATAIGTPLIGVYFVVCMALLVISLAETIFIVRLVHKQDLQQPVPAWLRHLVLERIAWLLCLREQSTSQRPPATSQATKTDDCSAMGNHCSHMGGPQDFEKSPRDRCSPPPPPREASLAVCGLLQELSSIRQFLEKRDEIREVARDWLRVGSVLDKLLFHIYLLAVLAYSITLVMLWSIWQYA
Format: functional.

The target of test [4] is T4, Alpha-1A adrenergic receptor (Homo sapiens, UniProt P35348).
T4 sequence (P35348 whole entry): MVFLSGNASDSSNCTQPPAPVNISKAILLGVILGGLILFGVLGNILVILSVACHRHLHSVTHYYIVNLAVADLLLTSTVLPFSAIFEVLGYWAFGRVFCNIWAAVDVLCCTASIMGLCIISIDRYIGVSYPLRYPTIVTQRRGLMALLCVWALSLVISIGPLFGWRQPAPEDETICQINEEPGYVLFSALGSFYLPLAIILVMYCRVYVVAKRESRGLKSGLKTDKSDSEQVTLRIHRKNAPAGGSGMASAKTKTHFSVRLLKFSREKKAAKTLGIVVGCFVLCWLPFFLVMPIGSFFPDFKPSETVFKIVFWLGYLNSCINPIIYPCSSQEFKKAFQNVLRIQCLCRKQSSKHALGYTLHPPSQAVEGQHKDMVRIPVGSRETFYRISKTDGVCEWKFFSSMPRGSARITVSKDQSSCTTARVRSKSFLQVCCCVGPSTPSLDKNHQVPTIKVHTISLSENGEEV
In kind it is functional, cell-based.

Test [5] addresses T5, 5-hydroxytryptamine receptor 1A (Homo sapiens, UniProt P08908).
T5 sequence (P08908 whole entry): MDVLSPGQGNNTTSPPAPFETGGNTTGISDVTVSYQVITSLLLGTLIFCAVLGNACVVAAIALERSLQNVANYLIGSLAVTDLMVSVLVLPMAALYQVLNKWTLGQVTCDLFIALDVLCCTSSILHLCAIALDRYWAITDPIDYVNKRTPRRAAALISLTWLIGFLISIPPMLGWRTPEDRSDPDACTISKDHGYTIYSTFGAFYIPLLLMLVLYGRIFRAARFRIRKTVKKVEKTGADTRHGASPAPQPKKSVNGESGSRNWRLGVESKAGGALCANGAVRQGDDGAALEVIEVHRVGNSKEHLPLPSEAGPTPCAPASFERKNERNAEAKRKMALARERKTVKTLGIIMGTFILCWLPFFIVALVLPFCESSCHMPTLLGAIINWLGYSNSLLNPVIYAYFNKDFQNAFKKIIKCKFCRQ
Format: functional, cell-based.

For test [6], the target named is T6, Adenosine receptor A1 (Homo sapiens, UniProt P30542).
T6 sequence (P30542 whole entry): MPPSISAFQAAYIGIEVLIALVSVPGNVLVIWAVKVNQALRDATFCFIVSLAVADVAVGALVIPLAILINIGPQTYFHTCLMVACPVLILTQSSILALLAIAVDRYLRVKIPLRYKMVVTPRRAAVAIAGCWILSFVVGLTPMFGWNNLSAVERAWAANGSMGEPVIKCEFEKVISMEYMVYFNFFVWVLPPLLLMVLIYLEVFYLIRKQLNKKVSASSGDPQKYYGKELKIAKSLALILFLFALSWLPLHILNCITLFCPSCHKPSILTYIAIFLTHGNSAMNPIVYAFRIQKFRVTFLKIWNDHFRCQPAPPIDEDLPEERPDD
Note: assay procedure not described here.

Broadly, the AC50 is the concentration at which the activity in the assay is half-maximal. For `CCc1nc(N)nc(N)c1-c1ccc(Cl)cc1` [PYRIMETHAMINE], the AC50 in test [1] was more than 10 µM; in test [2], more than 10 µM; in test [3] it was more than 30 µM; in test [4], more than 30 µM; in test [5], 18 µM; in test [6], more than 10 µM.

Consider `C=CC[N+]1([C@H]2C[C@H]3[C@@H]4CC[C@H]5C[C@H](O)[C@@H](N6CCOCC6)C[C@]5(C)[C@H]4CC[C@]3(C)[C@H]2OC(C)=O)CCCC1` [ROCURONIUM], for which the AC50 in test [1], in test [2], in test [3], in test [4], in test [5] and in test [6] was more than 30 µM throughout.

As to `CCCN1CCCC[C@H]1C(=O)Nc1c(C)cccc1C` [ROPIVACAINE], the AC50 in test [1], in test [2], in test [3], in test [4], in test [5] and in test [6] was more than 30 µM in each case.

On to `CCN1CCCC1CNC(=O)c1cc(S(=O)(=O)CC)ccc1OC` (stereo not given) [SULTOPRIDE], for which the AC50 in test [1], in test [2], in test [3], in test [4], in test [5] and in test [6] was more than 30 µM throughout.

In the case of `C=CCN1CCc2nc(N)sc2CC1` [TALIPEXOLE], the AC50 in test [1] is more than 30 µM; in test [2], more than 30 µM; in test [3], more than 30 µM; in test [4], 2.5 µM; in test [5] it was more than 30 µM; in test [6], more than 30 µM.

As for `Cn1c(=O)c2c(ncn2CCOC(=O)C(C)(C)Oc2ccc(Cl)cc2)n(C)c1=O` [THEOFIBRATE], the AC50 in test [1], in test [2], in test [3], in test [4], in test [5] and in test [6] was more than 30 µM throughout.

Turning to `COc1cc(C(=O)NC2CCCNC2)cc(OC)c1OC` (stereo not given) [TROXIPIDE], the AC50 in test [1], in test [2], in test [3], in test [4], in test [5] and in test [6] was more than 30 µM throughout.

Take `CC(C)(C)NCC(O)c1ccccc1Cl` (stereo not given) [TULOBUTEROL]: the AC50 in test [1], in test [2], in test [3], in test [4], in test [5] and in test [6] was more than 30 µM each time.

In the case of `CC(C(=O)O)c1ccc2c(c1)CC(=O)c1ccccc1S2` (stereo not given) [ZALTOPROFEN], the AC50 in test [1], in test [2], in test [3], in test [4], in test [5] and in test [6] was more than 30 µM each time.

Regarding `CC(c1cc2ccccc2s1)N(O)C(N)=O` (stereo not given) [ZILEUTON], the AC50 in test [1] is more than 30 µM; in test [2], more than 10 µM; in test [3], more than 30 µM; in test [4], more than 30 µM; in test [5] it was more than 10 µM; in test [6], more than 10 µM.
